The target in assay [1] is Recombinant human JAK2 kinase domain protein (Residues 812-1132) (Homo sapiens, UniProt O60674). Briefly: JAK2 biochemical assay (LabChip mobility shift, Ki). The following applies: Biochem JAK2 Ki.
The test system of assay [2] is IL-13-stimulated STAT6 phosphorylation in human lung bronchial epithelial BEAS-2B cell line. Briefly: P-STAT6 BEAS-2B + IL-13 cell assay. The class given is cell-based. The conditions noted are these: BEAS2B cells, IL13 stimulation, read-out: Cellular JAK1 PSTAT6 BEAS2B + IL13. The gist of the method: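 BEAS-2B cells grown 48 h at 37 °C, pre-treated 1 h with compound (10-point 1:2 dilution curve), then stimulated 15 min with human recombinant IL-13 (250 ng/mL stock). Lysate P-STAT6 (Tyr641) read by MSD sandwich ELISA with total-STAT6 capture; IC50 from four-parameter logistic fit of control-normalised data.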

In assay [3] the target is T1, recombinant human JAK1 kinase domain protein (Residues 854-1154) (Homo sapiens, UniProt P23458).
T1 construct: human JAK1 kinase domain protein (Residues 854-1154); purchased Proteros Biostructures GmbH (Martinsried, Germany); host or cells: insect cells
As to the kind of experiment: JAK1 biochemical assay (LabChip mobility shift, Ki). The conditions noted are these: read-out: Biochem JAK1 Ki.

Read-outs that look alike come from different tables or passages of the source.

Sequence of Recombinant human JAK2 kinase domain protein (Residues 812-1132) (O60674 812-1132): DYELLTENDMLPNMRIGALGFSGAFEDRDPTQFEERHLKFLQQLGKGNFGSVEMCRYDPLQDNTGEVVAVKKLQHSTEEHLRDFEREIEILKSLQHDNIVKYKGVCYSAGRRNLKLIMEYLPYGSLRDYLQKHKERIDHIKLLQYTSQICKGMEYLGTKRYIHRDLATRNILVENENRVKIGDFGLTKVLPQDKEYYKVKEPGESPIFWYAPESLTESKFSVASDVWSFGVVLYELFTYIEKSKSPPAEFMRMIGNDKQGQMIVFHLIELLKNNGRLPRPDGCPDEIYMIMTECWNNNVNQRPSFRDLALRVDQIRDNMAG
T1 sequence (P23458 854-1154): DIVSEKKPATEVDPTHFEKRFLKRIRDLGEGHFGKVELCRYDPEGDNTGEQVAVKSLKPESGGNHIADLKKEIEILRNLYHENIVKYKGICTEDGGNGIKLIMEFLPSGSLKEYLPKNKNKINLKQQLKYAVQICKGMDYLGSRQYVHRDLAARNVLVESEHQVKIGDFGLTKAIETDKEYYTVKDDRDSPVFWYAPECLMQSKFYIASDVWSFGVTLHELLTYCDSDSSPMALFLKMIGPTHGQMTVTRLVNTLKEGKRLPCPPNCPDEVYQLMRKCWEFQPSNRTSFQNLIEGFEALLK

For orientation: Ki means a measure of affinity in units of concentration, obtained from inhibition or displacement. Consider `Cn1cc(NC(=O)c2cnn3cccnc23)c(-c2cc(Oc3cnn(C4CC(O)C4)c3)ccc2OC(F)F)n1` (stereo not drawn) [Example 118, N-[3-[2-(difluoromethoxy)-5-[1-(3-hydroxycyclobutyl)pyrazol-4-yl]oxy-phenyl]-1-methyl-pyrazol-4-yl]pyrazolo[1,5-a]pyrimidine-3-carboxamide], for which the Ki in assay [1] came out at 0.5 nM; in assay [3], 0.43 nM. Also, the IC50 in assay [2] (Homo sapiens, BEAS-2B) stood at 48 nM.

Take `Cn1cc(NC(=O)c2cnn3cccnc23)c(-c2cc(Oc3cnn(C4CC(O)C4)c3)ccc2OC(F)F)n1` (stereo not drawn) [Example 119, N-[3-[2-(difluoromethoxy)-5-[1-(3-hydroxycyclobutyl)pyrazol-4-yl]oxy-phenyl]-1-methyl-pyrazol-4-yl]pyrazolo[1,5-a]pyrimidine-3-carboxamide]: the Ki in assay [1] turned out to be 0.52 nM; in assay [3], 0.9 nM. Besides, the IC50 in assay [2] was 41 nM.

Turning to `Cn1cc(NC(=O)c2cnn3cccnc23)c(-c2cc(Oc3cnn(CC4(O)CNC4)c3)ccc2OC(F)F)n1` [Example 122, N-[3-[2-(difluoromethoxy)-5-[1-[(3-hydroxyazetidin-3-yl)methyl]pyrazol-4-yl]oxy-phenyl]-1-methyl-pyrazol-4-yl]pyrazolo[1,5-a]pyrimidine-3-carboxamide], the values for the Ki in assay [1] and in assay [3] were 0.56 nM and 0.52 nM, respectively. Moreover, the IC50 in assay [2] (Homo sapiens, BEAS-2B) is 390 nM.

For the compound `Cn1cc(NC(=O)c2cnn3cccnc23)c(-c2cc(Oc3cnn(CC4CNC4)c3)ccc2OC(F)F)n1` [Example 123, N-[3-[5-[1-(azetidin-3-ylmethyl)pyrazol-4-yl]oxy-2-(difluoromethoxy)phenyl]-1-methyl-pyrazol-4-yl]pyrazolo[1,5-a]pyrimidine-3-carboxamide], the Ki in assay [1] is 0.74 nM; in assay [3], 0.61 nM. The IC50 in assay [2] (Homo sapiens, BEAS-2B) amounted to 370 nM.

Take `Cn1cc(NC(=O)c2cnn3cccnc23)c(-c2cc(Oc3cnn(CC(C)(C)O)c3)ccc2OC(F)F)n1` [Example 124, N-[3-[2-(difluoromethoxy)-5-[1-(2-hydroxy-2-methyl-propyl)pyrazol-4-yl]oxy-phenyl]-1-methyl-pyrazol-4-yl]pyrazolo[1,5-a]pyrimidine-3-carboxamide]: the figures for the Ki in assay [1] and in assay [3] were 0.21 nM and 0.39 nM, respectively. Also, the IC50 in assay [2] (Homo sapiens, BEAS-2B) amounted to 29 nM.

For `Cn1cc(NC(=O)c2cnn3cccnc23)c(-c2cc(Oc3cnn(CC4COC4)c3)ccc2OC(F)F)n1` [Example 125, N-[3-[2-(difluoromethoxy)-5-[1-(oxetan-3-ylmethyl)pyrazol-4-yl]oxy-phenyl]-1-methyl-pyrazol-4-yl]pyrazolo[1,5-a]pyrimidine-3-carboxamide], the Ki in assay [1] is 0.38 nM; in assay [3] it was 0.82 nM. The IC50 in assay [2] (Homo sapiens, BEAS-2B) is 87 nM.

Regarding `Cn1cc(NC(=O)c2cnn3cccnc23)c(-c2cc(Oc3cnn(CCN)c3)ccc2OC(F)F)n1` [Example 126, N-[3-[5-[1-(2-aminoethyl)pyrazol-4-yl]oxy-2-(difluoromethoxy)phenyl]-1-methyl-pyrazol-4-yl]pyrazolo[1,5-a]pyrimidine-3-carboxamide], the Ki in assay [1] amounted to 0.91 nM; in assay [3] it was 1.1 nM. The IC50 in assay [2] (Homo sapiens, BEAS-2B) is 67 nM.

For the compound `CN1CC(Cn2cc(Oc3ccc(OC(F)F)c(-c4nn(C)cc4NC(=O)c4cnn5cccnc45)c3)cn2)C1` [Example 127, N-[3-[2-(difluoromethoxy)-5-[1-[(1-methylazetidin-3-yl)methyl]pyrazol-4-yl]oxy-phenyl]-1-methyl-pyrazol-4-yl]pyrazolo[1,5-a]pyrimidine-3-carboxamide], the figures for the Ki in assay [1] and in assay [3] were 1.5 nM and 1.6 nM, respectively. Also, the IC50 in assay [2] (Homo sapiens, BEAS-2B) was 46 nM.

With `CN(C)C(=O)Cc1ccc(Oc2ccc(OC(F)F)c(-c3nn(C)cc3NC(=O)c3cnn4cccnc34)c2)cc1` [Example 129, N-[3-[2-(difluoromethoxy)-5-[4-[2-(dimethylamino)-2-oxo-ethyl]phenoxy]phenyl]-1-methyl-pyrazol-4-yl]pyrazolo[1,5-a]pyrimidine-3-carboxamide], the Ki is 0.15 nM in assay [1] and 0.27 nM in assay [3]. Further, the IC50 in assay [2] (Homo sapiens, BEAS-2B) was 14 nM.
